According to ChEMBL document CHEMBL1201862, “PubChem BioAssay data set” (2004):
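Briefly, cells in 96-well plates were exposed to five compound concentrations for 48 h, and endpoints were estimated by linear interpolation. GI50 = concentration required for 50% inhibition of growth.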 Calls of active or inactive are those of the source. Cut-off read from the data, not from the text of the source: active = GI50 up to about 1.1 µM and inactive = higher.

Legend:
Experiment in all cases: NCI anticancer screen, dose series, 48 h
A498 = system: A498
A549 = system: A549
ACHN = system: ACHN
CAKI-1 = system: CAKI-1
CCRF-CEM = system: CCRF-CEM
COLO 205 = system: COLO 205
DLD-1 = system: DLD-1
DMS-114 = system: DMS-114
DMS-273 = system: DMS-273
EKVX = system: EKVX
HCC 2998 = system: HCC 2998
HCT-116 = system: HCT-116
HCT-15 = system: HCT-15
HL-60 = system: HL-60
HOP-18 = system: HOP-18
HOP-62 = system: HOP-62
HOP-92 = system: HOP-92
HT-29 = system: HT-29
IGROV-1 = system: IGROV-1
K562 = system: K562
KM-20L2 = system: KM-20L2
KM12 = system: KM12
LOX IMVI = system: LOX IMVI
LXFL 529 = system: LXFL 529
M14 = system: M14
M19-MEL = system: M19-MEL
MOLT-4 = system: MOLT-4
Malme-3M = system: Malme-3M
NCI-H226 = system: NCI-H226
NCI-H23 = system: NCI-H23
NCI-H460 = system: NCI-H460
NCI-H522 = system: NCI-H522
OVCAR-3 = system: OVCAR-3
OVCAR-4 = system: OVCAR-4
OVCAR-5 = system: OVCAR-5
OVCAR-8 = system: OVCAR-8
RPMI-8226 = system: RPMI-8226
RXF 393 = system: RXF 393
SF-268 = system: SF-268
SF-295 = system: SF-295
SF-539 = system: SF-539
SK-MEL-28 = system: SK-MEL-28
SK-MEL-2 = system: SK-MEL-2
SK-MEL-5 = system: SK-MEL-5
SK-OV-3 = system: SK-OV-3
SN12C = system: SN12C
SNB-19 = system: SNB-19
SNB-75 = system: SNB-75
SNB-78 = system: SNB-78
SR = system: SR
SW-620 = system: SW-620
TK-10 = system: TK-10
U-251 = system: U-251
UACC-257 = system: UACC-257
UACC-62 = system: UACC-62
UO-31 = system: UO-31
XF498 = system: XF498
786-0 = system: 786-0

Cc1ccc(NC(=O)CC2Sc3ccccc3NC2=O)cc1C (centres undefined)
GI50 (A498): 37.9 µM (inactive) | GI50 (A549): 41.2 µM (inactive) | GI50 (ACHN): 54.8 µM (inactive) | GI50 (CAKI-1): 85.9 µM (inactive) | GI50 (CCRF-CEM): 18.7 µM (inactive) | GI50 (COLO 205): 65.2 µM (inactive) | GI50 (DLD-1): > 100 µM (inactive) | GI50 (DMS-114): 41.9 µM (inactive) | GI50 (DMS-273): 85.7 µM (inactive) | GI50 (EKVX): > 100 µM (inactive) | GI50 (HCC 2998): > 100 µM (inactive) | GI50 (HCT-116): 41.6 µM (inactive) | GI50 (HCT-15): 85.7 µM | GI50 (HL-60): 24.5 µM (inactive) | GI50 (HOP-18): > 100 µM (inactive) | GI50 (HOP-62): > 100 µM (inactive) | GI50 (HOP-92): 26 µM (inactive) | GI50 (HT-29): 67.1 µM (inactive) | GI50 (IGROV-1): > 100 µM (inactive) | GI50 (K562): 28.2 µM (inactive) | GI50 (KM-20L2): > 100 µM (inactive) | GI50 (KM12): 90.4 µM (inactive) | GI50 (LOX IMVI): 38.6 µM (inactive) | GI50 (LXFL 529): 49 µM (inactive) | GI50 (M14): > 100 µM (inactive) | GI50 (M19-MEL): > 100 µM (inactive) | GI50 (MOLT-4): 8.22 µM (inactive) | GI50 (Malme-3M): > 100 µM (inactive) | GI50 (NCI-H226): 57.9 µM (inactive) | GI50 (NCI-H23): > 100 µM (inactive) | GI50 (NCI-H460): 58.6 µM (inactive) | GI50 (NCI-H522): > 100 µM (inactive) | GI50 (OVCAR-3): 70.8 µM (inactive) | GI50 (OVCAR-4): 56.2 µM (inactive) | GI50 (OVCAR-5): > 100 µM (inactive) | GI50 (OVCAR-8): 46.8 µM (inactive) | GI50 (RPMI-8226): > 100 µM (inactive) | GI50 (RXF 393): 29.9 µM (inactive) | GI50 (SF-268): 60 µM (inactive) | GI50 (SF-295): > 100 µM (inactive) | GI50 (SF-539): 85.3 µM (inactive) | GI50 (SK-MEL-28): > 100 µM (inactive) | GI50 (SK-MEL-2): > 100 µM (inactive) | GI50 (SK-MEL-5): 41.4 µM (inactive) | GI50 (SK-OV-3): > 100 µM (inactive) | GI50 (SN12C): > 100 µM (inactive) | GI50 (SNB-19): > 100 µM (inactive) | GI50 (SNB-75): 39.8 µM (inactive) | GI50 (SNB-78): > 100 µM (inactive) | GI50 (SR): > 100 µM (inactive) | GI50 (SW-620): > 100 µM (inactive) | GI50 (TK-10): > 100 µM (inactive) | GI50 (U-251): 79.6 µM (inactive) | GI50 (UACC-257): > 100 µM (inactive) | GI50 (UACC-62): 75.3 µM (inactive) | GI50 (UO-31): 73.6 µM (inactive) | GI50 (XF498): > 100 µM (inactive)

CCCS(=O)(=O)/C(=C(\c1ccc(Br)cc1)S(=O)(=O)CCC)c1ccc(Br)cc1
GI50 (786-0): > 10 µM (inactive) | GI50 (A498): > 10 µM (inactive) | GI50 (A549): > 10 µM (inactive) | GI50 (ACHN): > 10 µM (inactive) | GI50 (CAKI-1): > 10 µM (inactive) | GI50 (CCRF-CEM): > 10 µM (inactive) | GI50 (COLO 205): > 10 µM (inactive) | GI50 (DLD-1): > 10 µM (inactive) | GI50 (DMS-273): > 10 µM (inactive) | GI50 (EKVX): > 10 µM (inactive) | GI50 (HCC 2998): > 10 µM (inactive) | GI50 (HCT-116): > 10 µM (inactive) | GI50 (HCT-15): > 10 µM | GI50 (HL-60): > 10 µM (inactive) | GI50 (HOP-18): > 10 µM (inactive) | GI50 (HOP-62): > 10 µM (inactive) | GI50 (HOP-92): > 10 µM (inactive) | GI50 (HT-29): > 10 µM (inactive) | GI50 (IGROV-1): > 10 µM (inactive) | GI50 (K562): > 10 µM (inactive) | GI50 (KM-20L2): > 10 µM (inactive) | GI50 (KM12): > 10 µM (inactive) | GI50 (LOX IMVI): > 10 µM (inactive) | GI50 (LXFL 529): > 10 µM (inactive) | GI50 (M14): > 10 µM (inactive) | GI50 (M19-MEL): > 10 µM (inactive) | GI50 (MOLT-4): > 10 µM (inactive) | GI50 (Malme-3M): > 10 µM (inactive) | GI50 (NCI-H226): > 10 µM (inactive) | GI50 (NCI-H23): > 10 µM (inactive) | GI50 (NCI-H460): > 10 µM (inactive) | GI50 (NCI-H522): > 10 µM (inactive) | GI50 (OVCAR-3): > 10 µM (inactive) | GI50 (OVCAR-4): > 10 µM (inactive) | GI50 (OVCAR-5): > 10 µM (inactive) | GI50 (OVCAR-8): > 10 µM (inactive) | GI50 (RPMI-8226): > 10 µM (inactive) | GI50 (RXF 393): > 10 µM (inactive) | GI50 (SF-268): > 10 µM (inactive) | GI50 (SF-295): > 10 µM (inactive) | GI50 (SF-539): > 10 µM (inactive) | GI50 (SK-MEL-28): > 10 µM (inactive) | GI50 (SK-MEL-2): > 10 µM (inactive) | GI50 (SK-MEL-5): > 10 µM (inactive) | GI50 (SK-OV-3): > 10 µM (inactive) | GI50 (SN12C): > 10 µM (inactive) | GI50 (SNB-19): > 10 µM (inactive) | GI50 (SNB-75): > 10 µM (inactive) | GI50 (SNB-78): > 10 µM (inactive) | GI50 (SR): > 10 µM (inactive) | GI50 (SW-620): > 10 µM (inactive) | GI50 (TK-10): > 10 µM (inactive) | GI50 (U-251): > 10 µM (inactive) | GI50 (UACC-257): > 10 µM (inactive) | GI50 (UACC-62): > 10 µM (inactive) | GI50 (UO-31): > 10 µM (inactive) | GI50 (XF498): > 10 µM (inactive)
